Consider 62 compounds from PubChem BioAssay AID2305 (GlaxoSmithKline (GSK), 2010).

Structures are written as SMILES.

As a reminder, the IC50 is the point on the concentration scale where inhibition reaches its midpoint. Low values mean greater potency in that assay, high ones weaker potency in that assay.

The assay concerns P. falciparum 3D7 growth, pLDH absorbance. Briefly: blood-stage malaria parasite growth potency – strain 3D7, dose response (AID 2305).
Regarding `O=C(Nc1cccc(CN2CCCN(Cc3ccc4c(c3)OCO4)CC2)c1)c1ccc2ccccc2c1`, the IC50 was 1050 nM.
Regarding `CCN1CCN(CCNc2c3ccccc3nc3ccccc23)CC1`, the concentration for half-maximal inhibition (IC50) worked out at 1020 nM.
With `CCN(CC)CCCCCNc1c2ccc(Cl)cc2nc2ccc(OC)cc12`, the IC50 worked out at 50 nM.
The result for `CCCCCC(C)N=C(Nc1ccc(C#N)cc1O)Nc1ccccc1Br` (configuration not stated) reads 750 nM; that for `CC(=O)Nc1ccc(OCCN(CC(C)C)c2ccc(C#N)c(C(F)(F)F)c2)c(Cl)c1`, 790 nM.
Next, `O=C(Cc1ccccc1)NC(c1ccc(Cl)cc1)c1ccc2cccnc2c1O` (configuration not stated): 860 nM; `CCOc1cc(C(=O)NC2CCN(Cc3ccccc3)CC2)ccc1-c1nc2ccc(Cl)cc2[nH]1`: 430 nM; `C[C@@H]1CN(c2cnn(Cc3cccc(NC(=O)Nc4ccc(-c5ccccc5)cc4)c3)c(=O)c2Cl)C[C@H](C)N1`: 340 nM.
As to `CCCCCCCN1CC[C@@H](C[C@H](N)Cc2ccnc3ccc(OC)cc23)[C@@H](CC)C1`, the IC50 was found to be 1070 nM.
Next, `Cc1nc2ccc3ccc(CNc4ccc(C#N)cc4)cc3c2c(=O)[nH]1`: 1440 nM; `COc1cc(CC2c3cc(O)c(Cl)cc3CCN2C)c(OC)cc1C` (configuration not stated): 710 nM.
On to `CCNc1cc(C(=O)N[C@@H](Cc2ccccc2)[C@H](O)CNC(C)(C)CC(C)(C)C)c(F)c(N2CCCCS2(=O)=O)c1`, for which the IC50 came to 1010 nM.
`O=C(Nc1ccc(Cl)cc1F)NC1CCN(CCCCCNC(=O)[C@@H]2C[C@H]2c2ccc(Cl)c(Cl)c2)CC1`: the half-inhibitory concentration (IC50) is 510 nM.
Next, `Cc1cccc2[nH]c(-c3ccc(-c4cccc(CN5CCC(C(N)=O)CC5)c4)cc3)nc12`: 1770 nM; `NCc1ccc(CNCc2cccc(-c3cccc(-c4nc5ccccc5[nH]4)c3)c2)cc1`: 490 nM.
Next, `CN1CCC(N2CCN(c3ccc4c(=O)nc(CCc5cccc(F)c5F)n(CC(=O)N(C)Cc5ccc(-c6ccc(C(F)(F)F)cc6)cc5)c4n3)CC2)CC1`: 720 nM; `CC(CNc1nc(NCC(c2ccccc2)c2ccccc2)c2[nH]cnc2n1)c1ccccc1` (configuration not stated): 950 nM.
The result for `CC(=O)Nc1ccc(C(=O)NC2CCN(c3ccnc4cc(Cl)ccc34)C2)cc1` (configuration not stated) reads 810 nM; that for `COc1ccc(CN(C)CCOc2ccc(NC(=O)c3cccc4c(=O)c5cc(SC)ccc5[nH]c34)cc2)cc1OC`, 880 nM.
`COc1ccc(OCC(=O)Nc2nc(-c3ccc(OC)cc3)c(C)s2)cc1` showed an IC50 of 1950 nM.
The result for `COc1ccc(OC)c(NC(=O)c2c(-c3c(F)cccc3Cl)noc2C)c1` reads 700 nM; that for `Cc1cc(N2CCCC2)nc(Nc2ccc(NC(=O)C(C)(C)C)cc2)n1`, 1070 nM; that for `CCc1ccc(NC(=O)c2ccc(CN3CCCN(Cc4ccc(C)s4)CC3)cc2)cc1`, 1150 nM.
Regarding `COc1ccc(NC(=O)[C@H](CC(C)C)Nc2cc(C)nc(Nc3ccccc3)n2)cc1`, the IC50 turned out to be 870 nM.
`O=C(Nc1cccc(-c2cccc(-c3nc4ccc(F)cc4[nH]3)c2)c1)Nc1ccc2c(c1)OCO2` showed a concentration for half-maximal inhibition (IC50) of 140 nM.
`COc1ccccc1CCNc1nc(C)cc(N[C@@H](Cc2ccccc2)C(=O)NCc2cccs2)n1` registered an IC50 of 630 nM.
The result for `CCn1c(-c2cc(C)on2)nc2cnc(Oc3ccc(C(=O)N4CC(=O)N(C)C4C(C)(C)C)cc3)cc21` (configuration not stated) reads 1820 nM.
Next, `Cc1cc(OCCCN2CCC(NS(=O)(=O)c3cccc(Br)c3)CC2)c2ccccc2n1`: 1110 nM; `COc1ccccc1C(=O)N1CCN(Cc2cccs2)CC1`: 870 nM.
In the case of `O=S(=O)(c1ccccc1C(F)(F)F)C1C[C@H]2CC[C@@H](C1)N2S(=O)(=O)c1ccc(Cl)c(C(F)(F)F)c1` (some centres not stated), the IC50 was determined as 710 nM.
As for `N#Cc1cccc(NC(=O)c2ccc(S(=O)(=O)NCC3CCCN3CC3CCCCC3)cc2)c1` (configuration not stated), the concentration for half-maximal inhibition (IC50) was found to be 1050 nM.
The result for `CCOCc1cnc(C)nc1CNC(=O)c1c(C)[nH]c2ccc(C)cc12` reads 1010 nM; that for `O=C(Nc1cccc(C(F)(F)F)c1)Nc1ccc(F)c([N+](=O)[O-])c1`, 700 nM.
Regarding `CCc1ccc(C2CCN(CCCCNC(=O)c3ccc(NC(=O)c4ccc(Cl)cc4)cc3)CC2)cc1`, the half-maximal inhibitory concentration (IC50) stood at 650 nM.
Compound `O=C(Nc1cccc(CN2CCN(Cc3ccc(O)cc3)CC2)c1)c1cc2ccccc2s1` gave an IC50 of 680 nM.
The compound `Cc1cc(NC(=O)NCCN2CCC(NC(=O)c3ccc(F)cc3)CC2)c2ccccc2n1` showed an IC50 of 330 nM.
The compound `Cc1cc2cc(CNCCc3ccccc3Br)ccc2nc1N` returned a concentration for half-maximal inhibition (IC50) of 240 nM.
The result for `CCCN(Cc1ccc(OCC)cc1)Cc1cc(=O)c2cc(Cl)ccc2[nH]1` reads 1260 nM; that for `O=C(CSc1nc(-c2ccccc2Cl)ns1)Nc1cccc(Cl)c1`, 790 nM; that for `CCCCCC(C)C(C)c1cc(O)c2c(c1)OC(C)(C)CC2(O)c1ccccn1` (configuration not stated), 740 nM.
The result for `O=C(Nc1cccc(-c2ccc(CN3CCCC3)cc2)c1)c1cccc(F)c1` reads 780 nM; that for `O=C(NC1CCC(CN2CCC(c3c[nH]c4ccccc34)CC2)CC1)NC12CC3CC(CC(C3)C1)C2` (configuration not stated), 1060 nM.
`CCc1c[nH]c2c(N3CCCC3=O)cc(C(=O)N[C@@H](Cc3ccccc3)[C@H](O)CNC(C)(C)c3cccc(OC)c3)cc12` registered a half-inhibitory concentration (IC50) of 190 nM.
In turn, `COc1cccc(NC(=O)Nc2ccc(C)c(-c3ccc(C(=O)Nc4ccncc4)cc3)c2)c1` returned an IC50 of 520 nM.
The result for `CS(=O)(=O)c1ccc(OCCCN(Cc2ccccc2C(F)(F)F)c2ccc(C#N)c(C(F)(F)F)c2)cc1` reads 1020 nM; that for `CN(C)c1cccc2c1nc(-c1ccco1)n2CC1CCCN1` (configuration not stated), 970 nM; that for `Cc1ccc(C(=O)c2oc3ccc4c(C)cc(=O)oc4c3c2C)cc1`, 1030 nM.
In turn, `CCn1c(-c2nonc2N)nc2c(-c3cccc(Cl)c3)ncc(OCCCNCc3cnc(C)nc3N)c21` yielded a 50% inhibitory concentration (IC50) of 1010 nM.
For the compound `c1ccc(CN2CCC(Nc3ccc(-c4cn[nH]c4-c4ccccn4)nc3)CC2)cc1`, the IC50 stood at 800 nM.
`CCc1ccc(-n2cc(C(=O)c3cc(Br)ccc3O)cc(C#N)c2=O)cc1` showed an IC50 of 800 nM.
As to `CC(C)(C)N1CCC(N(Cc2ccc(-c3ccc(C(F)(F)F)cc3)cc2)C(=O)Cn2c(CCc3cccc(F)c3F)nc(=O)c3cccnc32)CC1`, the IC50 is 760 nM.
The result for `C=CCC(C)n1ncc2c3c(N)nc(N)nc3ccc21` (configuration not stated) reads 50 nM; that for `CCc1nn2c(Nc3ccncc3)cc(C)nc2c1-c1ccccc1`, 200 nM.
For `CCCCCCN1CCCN(Cc2ccc(C(=O)Nc3ccc(Cl)cc3)cc2)CC1`, the IC50 stood at 1210 nM.
`O=S(=O)(NCCN1CCCC1)c1ccc(-c2ccc(CNCc3ccccc3)cc2)cc1F` yielded an IC50 of 1290 nM.
Turning to `COc1ccc(C2CC(=O)C3=C(C2)NC(C)=C(C(=O)OC(C)C)C3c2c(F)cccc2Cl)cc1OC` (configuration not stated), the IC50 came to 820 nM.
`CS(=O)(=O)N(CC(O)Cn1c2ccc(Cl)cc2c2cc(Cl)ccc21)c1ccccc1` (configuration not stated) registered a half-maximal inhibitory concentration (IC50) of 900 nM.
The compound `Cc1cc(C)c(NC(=O)NC2CCN(CCCCCNC(=O)/C=C/c3ccc(Cl)c(Cl)c3)CC2)c(C)c1` returned an IC50 of 800 nM.
For the compound `O=C(Nc1cccc(N2CCC(NCc3cccnc3)CC2)c1)c1cccc(C(F)(F)F)c1`, the IC50 came to 970 nM.
The result for `CN(C)Cc1ccc(-c2ccc3c(Nc4ccc(Cl)cc4F)ccnc3c2)o1` reads 240 nM; that for `Cn1c(=O)n(C)c2cc(CNCCNc3ccnc4cc(Cl)ccc34)ccc21`, 140 nM.
Next, `CN1CCN(CCc2ccc(N=Cc3c(=O)[nH]c4ccc5[nH]cccc5c34)cc2)CC1`: 330 nM.
